In one test the target is Influenza Neuraminidase. Kind of test: Influenza neuraminidase fluorimetric assay. Format: biochemical, influenza virus. The conditions noted are these: 4-methylumbelliferyl-alpha-D-acetylneuraminic acid substrate 75 uM, pH 6.5, 37 C.
Test [1] has as its target Sendai Virus Hemagglutinin-Neuraminidase (Sendai virus, UniProt P03425). Nature of the test: Paramyxovirus hemagglutinin-neuraminidase fluorimetric assay. Format: biochemical.

pIC50: −log10 of the molar value. Bounds are passed on as bounds.

Sendai Virus Hemagglutinin-Neuraminidase, sequence (P03425 whole entry): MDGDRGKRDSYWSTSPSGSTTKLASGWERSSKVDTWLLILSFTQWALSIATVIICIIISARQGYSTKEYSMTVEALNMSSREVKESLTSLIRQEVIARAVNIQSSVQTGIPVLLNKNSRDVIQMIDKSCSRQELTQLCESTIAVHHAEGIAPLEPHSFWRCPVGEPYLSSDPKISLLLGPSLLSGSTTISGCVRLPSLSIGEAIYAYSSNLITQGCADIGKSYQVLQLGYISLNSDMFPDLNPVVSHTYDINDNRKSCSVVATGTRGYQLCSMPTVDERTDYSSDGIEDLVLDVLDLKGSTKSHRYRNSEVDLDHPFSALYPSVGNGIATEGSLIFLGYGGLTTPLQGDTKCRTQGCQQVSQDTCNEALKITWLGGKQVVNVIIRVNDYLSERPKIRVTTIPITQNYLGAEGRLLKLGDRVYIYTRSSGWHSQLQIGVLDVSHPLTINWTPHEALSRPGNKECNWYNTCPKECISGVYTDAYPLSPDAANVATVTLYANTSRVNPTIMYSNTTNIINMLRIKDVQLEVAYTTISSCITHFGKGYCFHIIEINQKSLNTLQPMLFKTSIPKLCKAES

For orientation: pIC50 means the negative decadic logarithm of the IC50, by convention in mol/L. Read a low pIC50 as a high IC50. As for `CCC(CC)C(NC(C)=O)C1C(NC(=N)N)CC(C(=O)O)C1O` (single isomer, unassigned; (-)) [Compound 2, (-)-t-e-[(1-Acetylamino)(2-ethyl)butyl]-c-4-(aminoiminomethyl)amino-t-2-hydroxycyclopentan-r-1-carboxylic acid], the values for the pIC50 (on Influenza Neuraminidase; in test [1]) were over 7.30 and under 3.52, respectively.
Consider `CCC(CC)C(NC(C)=O)C1CC(C(=O)O)CC1NC(=N)N` (single isomer, unassigned; (-)) [Compound 3, (-)t-3-[(1-Acetylamino-2-ethyl)butyl]-c-4-(aminoiminomethyl)aminocyclopentan-r-1-carboxylic acid], for which the pIC50 at Influenza Neuraminidase is over 7.30; in test [1], under 3.52.
Regarding `CCN(CC)C(=O)C(NC(C)=O)C1CC(C(=O)O)CC1NC(=N)N` (stereo not drawn) [Compound 1, alpha-3-[(Acetylamino)(diethylaminocarbonyl)methyl]-beta-4-[(aminoiminomethyl)amino]cyclopentane-1-carboxylic acid], the pIC50 is over 7.30 against Influenza Neuraminidase and under 3.52 in test [1].
